Laboratory results as given in US20190077840A1, “SELECTIVE MCL-1 BINDING PEPTIDES” (MASSACHUSETTS INSTITUTE OF TECHNOLOGY, priority 2015, published 2019).
Numbered stars: 1 amine (or outer) side, 2 acyl side, 3 side chain; on linkers, the order of the positions; unused ones are H or OH. Bridge positions count the residues as written; N and C are the ends. Square brackets hold non-standard residues; d marks the D form. Peptide text beside a SMILES is read from it. ξ: configuration not given here. ξαMeNle(6-ylidene) = CC(CCCC=[*:3])(N[*:1])C(=O)[*:2]; Cha = N[C@@H](CC1CCCCC1)C(=O)O; Nle = CCCC[C@H](N)C(=O)O; Aib = CC(C)(N)C(=O)O

Tests used:
chymotrypsin = experiment: Protease resistance: HPLC half-lives of peptides exposed to chymotrypsin
MDA-MB 231 = assay type: cell-based, human
Text: (§1) A whole-cell BH3 profiling experiment quantifies the dependence of cancer cell mitochondrial integrity on specific anti-apoptotic proteins and can be predictive of cellular responses to chemotherapy (Ryan, J. A.; Brunelle, J. K.; Letai, A. Proc. Natl. Acad. Sci. 2010, 107 (29), 12895 and Ryan, J. A; Letai, A. Methods 2013, 61(2), 156). In this assay, permeabilized cells are stained with dye JC1 to monitor mitochondrial membrane integrity in response to increasing doses of BH3 peptides. We used this assay to test the specificity of our Mcl-1-binding stapled peptides in cell lines with different established dependencies on Bcl-xL and Mcl-1. Mcl-1/Myc 2640 is an engineered murine leukemia cell line overexpressing murine Mcl-1 and Myc, and MDA-MB 231 is a human breast cancer cell line with a primed Bcl-xL-dependent pro-file (Brunelle, J. K.; Ryan, J.; Yecies, D.; Opferman, J. T.; Letai, A. J Cell Biol. 2009, 187 (3), 429 and Ryan, J. A.; Brunelle, J. K.; Letai, A. Proc. Natl. Acad. Sci. 2010, 107 (29), 12895). By BH3 profiling using native BH3 peptides from BAD and NOXAA, we confirmed cell line dependencies on these anti-apoptotic proteins (FIG. 3). […] Mcl-1 2640 cell line is dependent on Mcl-1 whereas MDA-MB-231 is dependent on Bcl-xL, as indicated by response to NoxA and Bad, respectively. […]

Mcl-1/Myc 2640 = assay type: cell-based, murine
Text: as §1

Bax/Bak deficient cells = experiment: Whole-cell BH3 profiling in Bax/Bak deficient cells (BBDL); assay type: cell-based; settings: Bax/Bak independent activity indicates non-specific toxicity
[1] = Circular dichroism spectroscopy (helicity); assay type: physicochemical; settings: more helical than MS1
Description: (§2) The standard errors reported are over three experiments.
The secondary structure of selected stapled peptides was assessed by circular dichroism (CD) spectroscopy (FIG. 1(c)). […] Therefore, the increases in helicity can be attributed to both helix-inducing substitutions: Aib at 2e and Cha at 3a (Armstrong, K. M.; Fairman, R.; Baldwin, R. L. J. Mol Biol. 1993, 230 (1), 284. and Venkatraman, J.; Shankaramma, S. C.; Balaram, P. Chem. Rev. 2001, 101 (10), 3131).

Mcl-1 = Mcl-1 (Homo sapiens, UniProt Q07820); experiment: Competition fluorescence polarization/anisotropy assay with fluoresceinated Bim BH3 peptide for binding to Mcl-1
Text: as §2
Position 2e is usually conserved as small (alanine, glycine, serine) in natural BH3 sequences.

Sequence of Mcl-1 (Q07820 whole entry): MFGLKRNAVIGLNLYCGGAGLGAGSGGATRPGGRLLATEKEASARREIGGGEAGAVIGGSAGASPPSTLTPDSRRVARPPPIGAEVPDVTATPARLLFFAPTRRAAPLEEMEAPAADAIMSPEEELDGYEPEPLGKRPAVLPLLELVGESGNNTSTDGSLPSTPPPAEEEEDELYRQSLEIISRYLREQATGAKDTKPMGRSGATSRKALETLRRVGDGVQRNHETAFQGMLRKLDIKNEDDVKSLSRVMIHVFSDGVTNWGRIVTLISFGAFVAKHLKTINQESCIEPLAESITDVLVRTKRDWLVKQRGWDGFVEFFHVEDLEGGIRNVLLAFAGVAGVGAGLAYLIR

Molecule: CCCC[C@H](NC(=O)[C@H](Cc1c[nH]c2ccccc12)NC(=O)[C@@H](N)[C@@H](C)CC)C(=O)NC(C)(C)C(=O)N[C@@H](CCC(N)=O)C(=O)NCC(=O)N[C@@H](CC(C)C)C(=O)N[C@@H](CCCNC(=N)N)C(=O)N[C@@H](CCCNC(=N)N)C(=O)N[C@@H](CC(C)C)C(=O)NCC(=O)N[C@@H](CC(=O)O)C(=O)N[C@@H](CCC(=O)O)C(=O)N[C@H](C(=O)NC1(C)CCCC=CCCCC(C)(C(=O)N[C@@H](CCCNC(=N)N)C(=O)N[C@@H](CCCNC(=N)N)C(N)=O)NC(=O)[C@H](Cc2ccc(O)cc2)NC(=O)[C@H](Cc2ccc(O)cc2)NC(=O)[C@H](C)NC1=O)[C@@H](C)CC (stereo partly shown) [M2d, IWBAibQGLRRLGDEIXAYYXRR] (H-IW[Nle][Aib]QGLRRLGDEI[ξαMeNle(6-ylidene)]AYY[ξαMeNle(6-ylidene)]RR-NH2; staple 15-19)
- half-lives (protease resistance) compared to M1d (chymotrypsin): longer half-lives

Molecule: CCCC[C@H](NC(=O)[C@H](Cc1c[nH]c2ccccc12)NC(=O)[C@@H](N)[C@@H](C)CC)C(=O)NC(C)(C)C(=O)N[C@@H](CCC(N)=O)C(=O)NCC(=O)N[C@@H](CC1CCCCC1)C(=O)N[C@@H](CCCNC(=N)N)C(=O)N[C@@H](CCCNC(=N)N)C(=O)N[C@@H](CC(C)C)C(=O)NCC(=O)N[C@@H](CC(=O)O)C(=O)N[C@@H](CCC(=O)O)C(=O)N[C@H](C(=O)NC1(C)CCCC=CCCCC(C)(C(=O)N[C@@H](CCCNC(=N)N)C(=O)N[C@@H](CCCNC(=N)N)C(N)=O)NC(=O)[C@H](Cc2ccc(O)cc2)NC(=O)[C@H](Cc2ccc(O)cc2)NC(=O)[C@H](C)NC1=O)[C@@H](C)CC (stereo partly shown) [M3d, IWBAibQGChaRRLGDEIXAYYXRR] (H-IW[Nle][Aib]QG[Cha]RRLGDEI[ξαMeNle(6-ylidene)]AYY[ξαMeNle(6-ylidene)]RR-NH2; staple 15-19)
- EC50 (MDA-MB 231): > 5000 nM
- EC50 (Mcl-1/Myc 2640): 30 nM
- half-lives (protease resistance) compared to M1d (chymotrypsin): longer half-lives

Molecule: IWBTQGLRRLGDEIXAYYXRR [M1d]
- activity in Bax/Bak deficient cells (Bax/Bak deficient cells): Bax/Bak independent activity
- helicity in solution relative to MS1 [1]: ~3 fold
- Mcl-1-binding affinity in comparison to MS1 (Mcl-1): improved
